Data from patent publication US10716821B2, “Use of plant extracts against herpes simplex virus” (UNIVERSITÉ DU QUÉBEC À CHICOUTIMI, priority 2013, dated 2020).

Test system: HSV-1
Experiment: HSV-1 plaque reduction, method D: replication period
Format: cell-based, herpes simplex virus type-1
Method: Plaque assays were performed with monolayer cultures of Vero cells in 24-well culture plates. For plaque reduction assay, cell monolayer was infected with virus (30 pfu/well) and incubated at 37° C. with 5% CO2 for one hour. The infected cell monolayer was then washed with PBS and overlaid with overlapping solution (maintenance medium containing 1% methylcellulose and various concentrations of indicated compounds). After 72 h of incubation at 37° C., cell monolayer was fixed with 5% paraformaldehyde and stained with 0.8% crystal violet. Plaques were counted and the percentage of inhibition was calculated as [(Pc−Pe)/Pc]100, where Pc and Pe refer to the plaque number in the absence and presence of the compound, respectively. The minimal concentration of compounds required to reduce 50% of plaque numbers (IC50) was also calculated. Cells and viruses (HSV-1) were incubated with acyclovir and various extracts at different stages during the viral infection cycle in order to determine the antiviral action mode (Koch et al., 2008). (A) For virus pretreatment assay, the virus suspension was incubated in a medium containing different concentrations of the extracts for one hour at 37° C. prior to infection of Vero cells. […] The antiviral activity of non-cytotoxic plant extracts was determined against HSV-1 in vitro. […] Then, the cells were washed and quantified using resazurin.

## Nc1nc2c(ncn2COCCO)c(=O)[nH]1 [Acyclovir]
Human alphaherpesvirus 1, 72 h, at 100 μg/ml, replication period (extracts added after infection, stay 3 days on cells), Vero cells, read-out: Inhibitory percentage of lysis plaques, D
  inhibition at 100 µg/mL: 100%
Dose of 0.75 μg/ml
  Protection of VERO cells against infection (positive control): protects VERO cells against infection
